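Results reflect a 48-hour exposure of cells in 96-well plates to compound at five concentrations. At the GI50, growth is halved.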 The source made the active and inactive calls. Rule as the data show it: active = GI50 up to about 1.1 µM and inactive = higher.

Some test systems named below: 786-0; A549; BT-549; EKVX; HOP-92; Hs-578T; K562; Malme-3M; NCI-H23; OVCAR-5; OVCAR-8; PC-3; SF-268; SF-295; SK-OV-3; SR; T47D; U-251; UACC-257.
What all share (assay): growth of human tumour cells (NCI), 48 h

Take `Cc1nc2sccn2c1/C=C1/C(=O)Nc2cccc(Cl)c21`: the GI50 was > 100 µM (inactive) in the assay on 786-0; > 100 µM (inactive) in the assay on A549; > 100 µM (inactive) in the assay with BT-549; 79.6 µM (inactive) in the assay on EKVX; > 100 µM (inactive) in the assay with HOP-92; > 100 µM (inactive) with Hs-578T. Further, the GI50 with K562 was 45.3 µM (inactive); in the assay with Malme-3M, > 100 µM (inactive); with NCI-H23, > 100 µM (inactive); in the assay on OVCAR-5, 73.5 µM (inactive); in the assay with OVCAR-8, > 100 µM (inactive); in the assay on PC-3, 80.7 µM (inactive). Besides, the GI50 was > 100 µM (inactive) in the assay with SF-268; 51.6 µM (inactive) in the assay with SF-295; > 100 µM (inactive) in the assay on SK-OV-3; 61.9 µM (inactive) in the assay on SR; 38.6 µM (inactive) with T47D; > 100 µM (inactive) in the assay on U-251. Moreover, the GI50 in the assay with UACC-257 was > 100 µM (inactive).
As to `CNC(=O)Nn1c(SC)nc2ccccc21`, the GI50 in the assay with 786-0, in the assay on A549, with BT-549, in the assay on EKVX, in the assay on HOP-92 and with Hs-578T was > 100 µM (inactive) in each case. Further, the GI50 in the assay on K562, with Malme-3M, with NCI-H23, with OVCAR-5, in the assay with OVCAR-8 and in the assay on PC-3 was > 100 µM (inactive) throughout. Besides, the GI50 in the assay on SF-268, in the assay on SF-295, in the assay on SK-OV-3, with SR, in the assay on T47D and with U-251 was > 100 µM (inactive) in each case. Besides, the GI50 in the assay on UACC-257 was > 100 µM (inactive).
As to `CC(ON(C(c1ccccc1)C(C)C)C(C)(C)C)c1ccccc1` (stereo not given), the GI50 is 16.4 µM (inactive) in the assay with 786-0; 29.6 µM (inactive) with A549; 12.6 µM (inactive) in the assay on BT-549; 15.4 µM (inactive) in the assay on EKVX; 20.6 µM (inactive) in the assay with HOP-92; 29 µM (inactive) in the assay on Hs-578T. Further, the GI50 in the assay on K562 is 18.9 µM (inactive); in the assay with Malme-3M, 38.3 µM (inactive); in the assay with NCI-H23, 18.7 µM (inactive); in the assay on OVCAR-5, 16 µM (inactive); in the assay on OVCAR-8, 21.8 µM (inactive); in the assay with PC-3, 33.8 µM (inactive). Further, the GI50 with SF-268 is 24.4 µM (inactive); in the assay with SF-295 it was 14.9 µM (inactive); in the assay with SK-OV-3, 39.3 µM (inactive); with SR, 23 µM (inactive); in the assay with T47D, 25.9 µM (inactive); in the assay on U-251, 17 µM (inactive). In addition, the GI50 in the assay with UACC-257 is 17.2 µM (inactive).
With `CC1(C)CCC(C)(C)c2cc(NC(=O)c3ccc(C(=O)O)cc3)ccc21` [TAMIBAROTENE], the GI50 in the assay on 786-0 was 31.3 µM (inactive); in the assay with A549, 27 µM (inactive); with BT-549, 25.7 µM (inactive); with EKVX, 37.9 µM (inactive); in the assay with HOP-92, 24.7 µM (inactive); with Hs-578T, 24.5 µM (inactive). In addition, the GI50 is 54.7 µM (inactive) in the assay with K562; 17.9 µM (inactive) with Malme-3M; 23.2 µM (inactive) in the assay with NCI-H23; > 51.6 µM (inactive) with OVCAR-5; 41.5 µM (inactive) with OVCAR-8; 25.8 µM (inactive) in the assay with PC-3. The GI50 in the assay on SF-268 was 34.8 µM (inactive); with SF-295 it was 22.6 µM (inactive); in the assay on SK-OV-3, 28 µM (inactive); in the assay with SR, > 69.8 µM (inactive); with T47D, 33.7 µM (inactive); with U-251, 24.7 µM (inactive). For the same compound, in the assay on UACC-257, the GI50 is 29.4 µM (inactive).
As for `CCNCCC1(CC)C(=O)NC(=O)NC1=O`, the GI50 in the assay with 786-0, with A549, in the assay on BT-549, in the assay on EKVX, with HOP-92 and in the assay on Hs-578T was > 100 µM (inactive) each time. Further, the GI50 in the assay with K562, in the assay on Malme-3M, with NCI-H23, in the assay with OVCAR-5, in the assay with OVCAR-8 and with PC-3 was > 100 µM (inactive) throughout. For the same compound, the GI50 in the assay on SF-268, in the assay on SF-295, with SK-OV-3, with SR, in the assay with T47D and in the assay with U-251 was > 100 µM (inactive) in each case. Besides, the GI50 in the assay on UACC-257 was > 100 µM (inactive).
On to `COc1ccc2c(c1)[nH]c1c(/C=C/c3ccccc3)nccc12`, for which the GI50 with 786-0 is 15.1 µM (inactive); with A549 it was 14.9 µM (inactive); in the assay with BT-549 it was 12.8 µM (inactive); with EKVX, 12.6 µM (inactive); in the assay on HOP-92, 18.6 µM (inactive); in the assay with Hs-578T, 19 µM (inactive). The GI50 with K562 was 15.9 µM (inactive); in the assay on Malme-3M it was 15.9 µM (inactive); in the assay on NCI-H23, 15.3 µM (inactive); with OVCAR-5 it was 14.9 µM (inactive); in the assay with OVCAR-8 it was 14.2 µM (inactive); in the assay with PC-3, 16.1 µM (inactive). In addition, the GI50 was 17.7 µM (inactive) in the assay on SF-268; 8.81 µM (inactive) in the assay on SF-295; 13.8 µM (inactive) in the assay on SK-OV-3; 3.47 µM (inactive) in the assay with SR; 23.5 µM (inactive) in the assay on T47D; 14.1 µM (inactive) with U-251. For the same compound, in the assay on UACC-257, the GI50 is 16.1 µM (inactive).
On to `Cc1ccc(N2C(=O)C(=O)N(/N=C3\C(=O)Nc4ccccc43)C2=S)cc1`, for which the GI50 is 46.6 µM (inactive) in the assay with 786-0; > 100 µM (inactive) in the assay on A549; 85.3 µM (inactive) with BT-549; > 100 µM (inactive) in the assay with EKVX; > 100 µM (inactive) with HOP-92; > 100 µM (inactive) with Hs-578T. Moreover, the GI50 was 37.1 µM (inactive) in the assay on K562; > 100 µM (inactive) in the assay on Malme-3M; 86.7 µM (inactive) in the assay on NCI-H23; > 100 µM (inactive) in the assay with OVCAR-5; 59.3 µM (inactive) in the assay on OVCAR-8; 39.4 µM (inactive) in the assay on PC-3. Also, the GI50 in the assay with SF-268 is 58.5 µM (inactive); with SF-295, 54.1 µM (inactive); in the assay with SK-OV-3 it was > 100 µM (inactive); in the assay on SR, 38.7 µM (inactive); with T47D, 38.2 µM (inactive); in the assay on U-251, 26.3 µM (inactive). The GI50 with UACC-257 is > 100 µM (inactive).
With `Cc1ccc(-n2cc(-c3ccc(Cl)cc3)c3c(N/N=C4\SCC(=O)N4C)ncnc32)cc1`, the GI50 is 3.39 µM (inactive) in the assay on 786-0; 4.72 µM (inactive) with A549; 15.6 µM (inactive) in the assay on BT-549; 18.3 µM (inactive) in the assay on EKVX; 2.62 µM (inactive) in the assay on HOP-92; 3.59 µM (inactive) in the assay with Hs-578T. Further, the GI50 with K562 was 5 µM (inactive); in the assay with Malme-3M it was 3.31 µM (inactive); in the assay with NCI-H23, 3.9 µM (inactive); in the assay on OVCAR-5, 45.4 µM (inactive); with OVCAR-8, 5.09 µM (inactive); in the assay with PC-3, 2.72 µM (inactive). Further, the GI50 in the assay on SF-268 is 7.05 µM (inactive); in the assay with SF-295 it was 2.67 µM (inactive); in the assay on SK-OV-3, 2.54 µM (inactive); in the assay on SR it was 20.7 µM (inactive); with T47D, 91.4 µM (inactive); in the assay on U-251, 6.71 µM (inactive). The GI50 in the assay with UACC-257 was 4.66 µM (inactive).
In the case of `N#Cc1cc2c(cc1Cl)Sc1nnc(Nc3ccccc3)n1S2(=O)=O`, the GI50 is 2.32 µM (inactive) in the assay on 786-0; 5.94 µM (inactive) in the assay on A549; 2.47 µM (inactive) in the assay on BT-549; 2.77 µM (inactive) in the assay with EKVX; 0.798 µM (active) in the assay on HOP-92; 2.3 µM (inactive) in the assay with Hs-578T. In addition, the GI50 was 1.44 µM (inactive) in the assay with K562; 2.19 µM (inactive) in the assay on Malme-3M; 1.62 µM (inactive) in the assay with NCI-H23; 1.92 µM (inactive) in the assay on OVCAR-5; 2 µM (inactive) in the assay on OVCAR-8; 1.74 µM (inactive) in the assay on PC-3. Further, the GI50 in the assay with SF-268 was 2.82 µM (inactive); in the assay on SF-295 it was 3 µM (inactive); with SK-OV-3, 5.04 µM (inactive); in the assay with SR, 0.15 µM (active); with T47D, 2.29 µM (inactive); in the assay with U-251 it was 1.87 µM (inactive). The GI50 in the assay on UACC-257 is 1.79 µM (inactive).
Regarding `COc1c(C)c(C/C=C(\C)CCCCO[Si](c2ccccc2)(c2ccccc2)C(C)(C)C)c(OC)c(OC)c1OC`, the GI50 is 22.7 µM (inactive) in the assay on 786-0; 21.4 µM (inactive) in the assay with A549; > 46.5 µM (inactive) with BT-549; > 31.6 µM (inactive) in the assay on EKVX; > 31.6 µM (inactive) with HOP-92; > 100 µM (inactive) with Hs-578T. For the same compound, the GI50 in the assay with K562 is 28.8 µM (inactive); with Malme-3M it was > 100 µM (inactive); in the assay with NCI-H23, 19.6 µM (inactive); in the assay on OVCAR-5, > 46.5 µM (inactive); with OVCAR-8, 20.2 µM (inactive); in the assay with PC-3 it was > 85.7 µM (inactive). Also, the GI50 was 65.5 µM (inactive) with SF-268; > 46.5 µM (inactive) in the assay on SF-295; > 46.5 µM (inactive) in the assay on SK-OV-3; 43.2 µM (inactive) in the assay with SR; > 83.9 µM (inactive) in the assay on T47D; > 46.5 µM (inactive) in the assay with U-251. Further, the GI50 in the assay with UACC-257 was > 46.5 µM (inactive).
